Measured values taken from patent US7579432B2, “Cyclic peptides as G-protein-coupled receptor antagonists” (Promics Pty Limited, priority 2001, dated 2009).

Columns and labels:
dermal Arthus reaction = assay: Reverse passive dermal Arthus reaction in the rat; type: in vivo; settings: intravenous, oral and topical
C5a-induced neutropenia = C5a-induced neutropenia after topical administration; type: in vivo; settings: topical 10 mg/per rat in 50% propylene glycol and 50% distilled H2O; C5a 2 μg/kg i.v.
Description: Female Wistar rats weighing between 200-250 g were used for in vivo testing of all C5a receptor antagonists. Rats were anaesthetized using the procedure described above, and transferred on to a heating pad to ensure that body temperature was maintained throughout the experiment. A catheter was inserted in the femoral vein, secured with a suture and flushed with 100 μL of heparinised saline. Rats were dosed with either the antagonist or vehicle, intravenously (1 mg kg^−1 in 200 μL saline containing 10% ethanol, 10 min prior to LPS challenge) or topically ([…] challenge) Rats were infused i.v via the femoral catheter with either LPS (1 mg kg^−1 i.v in 100 μL saline), recombinant human C5a (2 μgkg^−1 in 100 μL), or vehicle control 10 minutes after the iv administration or 60 min after topical administration, of antagonist or vehicle control. All agents infused i.v were injected over a 2 min period, and were followed with a subsequent injection of 100 μL of saline to ensure complete delivery of the drug.
Whole blood samples (0.1 mL) were collected from the tail vein at the time of drug and LPS or C5a administration. […] The number of PMNs was counted on a haemocytometer. The number of cells at each time point was calculated as a percentage of the total number of cells at time zero, prior to complement challenge or LPS. […]

[1] = system: neutropenia caused by i.v. LPS; assay: LPS-induced neutropenia (endotoxaemia model); type: in vivo, rat; settings: topical in 50% DMSO/50% H2O, 60 min before LPS 1 mg/kg i.v.
Description: The in vivo pharmacological properties of cyclic antagonists were examined following topical dermal administration. A model of endotoxaemia was used, in which 1 mg/kg Escherichia coli […] (LPS; serotype 55:B5, Sigma, USA, stored at 100 mg ml^−1 in dH2O, 4° C.), was injected i.v into a rat, resulting in acute changes in circulating PMN levels and blood pressure. These parameters were measured in the presence and absence of C5aR antagonists (1 mg/kg i.v or 50 mg/kg/rat topically). […] Female Wistar rats weighing between 200-250 g were used for in vivo testing of all C5a receptor antagonists. Rats were anaesthetized using the procedure described above, and transferred on to a heating pad to ensure that body temperature was maintained throughout the experiment. A catheter was inserted in the femoral vein, secured with a suture and flushed with 100 μL of heparinised saline. […] All agents infused i.v were injected over a 2 min period, and were followed with a subsequent injection of 100 μL of saline to ensure complete delivery of the drug. Whole blood samples (0.1 mL) were collected from the tail vein at the time of drug and LPS or C5a administration. Samples were collected at −15, 0, 5, 10, 15, 30, 60, 90, 120 and 150 min relative to the injection of LPS (zero time), and placed in tubes containing heparin (500 Units/mL). To isolate PMNs, 100 μL of blood was layered on to 200 μL of Histopaque 1077 (Sigma U.S.A.) solution and centrifuged at 400×g for 30 min min at room temperature (25° C.). The supernatant layer of platelet-rich plasma, the monocyte and lymphocyte interface and the separation layer of Histopaque were removed and discarded, leaving the PMN and red blood-cell rich layer. […] The number of PMNs was counted on a haemocytometer. The number of cells at each time point was calculated as a percentage of the total number of cells at time zero, prior to complement challenge or LPS. […] Circulating PMN levels were monitored for 150 min following LPS injection, and the percentage change in PMN levels from zero time, when LPS was injected, was calculated.

`CC(=O)N[C@@H](Cc1ccccc1)C(=O)N[C@H]1CCCNC(=O)[C@H](CCCNC(=N)N)NC(=O)[C@H](Cc2c[nH]c3ccccc23)NC(=O)[C@@H](CC2CCCCC2)NC(=O)[C@@H]2CCCN2C1=O` [Compound 1, Ac-Phe-[Orn-Pro-dCha-Trp-Arg]] was tested, and the “vascular leakage associated with a dermal Arthus reaction” value (dermal Arthus reaction; FIG. 1) was “inhibition”, the “rise in circulating TNFα associated with a dermal Arthus reaction” value (dermal Arthus reaction; FIG. 2) was “inhibition” and the “neutropaenic effects of i.v. C5a” value (C5a-induced neutropenia) was “prevent the neutropaenic effects of C5a”. For the same compound, the “neutropenia response to i.v. LPS” value [1] was “inhibited the neutropenia response”.
